Measured values reported in the METLIN SMRT retention time set (Domingo-Almenara et al. 2019).

Experiment: gradient 5% acetonitrile 3 min, to 50% in 2 min, to 85% in 15 min, held 3 min, 100 µL/min
Settings: column: Zorbax Extend-C18 2.1 x 50 mm; eluents: water / acetonitrile, 0.1% formic acid
How it was run: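 A Zorbax Extend-C18 column (2.1 × 50 mm, 1.8 μm) run at 100 μL/min with water and acetonitrile, both containing 0.1% formic acid, separated mixtures of ~100 pure standards. The HPLC was coupled to a quadrupole time-of-flight mass spectrometer operated in positive and negative ionization mode, with dead and dwell volumes of 40 μL and 900 μL. Each retention time was taken from a computationally picked adduct peak that was then manually inspected.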

SMILES	RP-LC retention time [s]
COC[C@@H]1CN(Cc2cccc(OC)c2OC)C[C@H]1c1ccncc1	656
O=S(=O)(c1ccccc1)N1CCC2(CC1)NCCN=C2NCc1ccc(F)c(Cl)c1	730
Cc1ccc(-c2csc(Cc3nc(-c4ccc(F)cc4)no3)n2)cc1C	1320
Cc1oc(-c2ccc(NC(=O)c3ccc(Br)o3)cc2)nc1Cn1cccn1	901
Cn1ncc2c(Nc3ccc([N+](=O)[O-])cc3)nc(Cl)nc21	963
Cc1ccc(-c2csc(Nc3ccc(Br)cn3)n2)c(C)c1	1330
CCOc1ccc(C(O)CN2CCN(C3CCCCC3)CC2)cc1 (stereo not given)	569
CCc1nnc(-c2cn(CC(=O)NCc3ccc(C)o3)c3ccccc23)o1	740
CCc1cccc(NS(=O)(=O)c2ccc(-c3nnc(C4CCC4)o3)o2)c1	1000
Cc1nc(-c2cc3ccccc3nc2N2CCN(C(=O)c3cccs3)CC2)no1	894
O=C(NCc1ccc(F)cc1)N1CCCC(Cn2c(C3CC3)nc3cccnc32)C1 (stereo not given)	669
COc1ccc(-c2nc3ncccn3c2Nc2cc(C)cc(C)c2)cc1	784
O=C(c1ccncc1)N1CCCC(OCc2nc(C3CC3)no2)C1 (stereo not given)	620
CN(C)S(=O)(=O)c1ccc(-c2nnc(NC(=O)c3ccc4ncsc4c3)o2)cc1	669
CCn1nnc2ccc(-c3noc(-c4ccc(OC)cc4)n3)cc21	1030
COc1ccc2c(c1)C1(CCN(S(=O)(=O)c3cccc(C)c3)C1)C(=O)N2 (stereo not given)	840
Cc1ccc(-c2nnc(Cc3nc(-c4ccc(F)cc4)no3)o2)cc1	1050
CC(C)CNC(=O)c1nn(-c2ccc(F)cc2)nc1CO	888
O=C(CCSc1ccccc1)Nc1cc(-c2cccs2)nn1CCO	793
CCN1CCN(CCNC(=O)C2CCN(C(=O)c3ccc(-n4ccc5ccccc54)s3)CC2)CC1	597

SMILES	RP-LC retention time [s]
CCc1ccc(N2CC(c3nc(-c4ccc(OC)cc4OC)no3)CC2=O)cc1 (stereo not given)	998
CSc1ccc(-c2nc3nc(C)cc(C)n3c2Nc2ccc(C(C)C)cc2)cc1	943
CCn1cc(-c2nc(C(=O)Nc3cccc(C#N)c3)cs2)c2cccnc21	1030
CCOC(=O)c1c(C)[nH]c2cc(Br)c(O)cc12	768
CCCS(=O)(=O)N1CC(F)(F)C[C@H]1c1nc(-c2cccnc2)no1	802
O=S(=O)(NCC1CCN(Cc2cccs2)CC1)c1cc(F)ccc1F	562
CCCCC(=O)N1CCN(c2nc3ccccc3nc2C(F)(F)F)CC1	1080
COCc1c(C(=O)O)nnn1-c1ccccc1F	670
COCc1cn(C2CN(C(=O)c3sc(C)nc3C)C2)nn1	589
CCOc1ccc(NC(=O)Cn2cccc2-c2nnc(-c3ccccc3)o2)cc1	990
CCOc1ccccc1NC(=O)NCC(c1cccnc1)c1c[nH]c2ccccc12 (stereo not given)	684
CCN1C(=O)c2cccnc2Sc2cc(CNC(=O)c3cccc(OC)c3)ccc21	762
CCc1ccc(S(=O)(=O)N2C[C@@H]3C(=O)N(C(CC)c4cccs4)C(=O)[C@@H]3C2)cc1 (stereo not given in full)	1070
CCn1ccc(NC(=O)c2ccccc2)n1	694
CC(NC(=O)Cn1c(=O)c2cccn2c2ccccc21)c1ccc2c(c1)OCCO2 (stereo not given)	794
CCOc1ccc(-c2nc(-c3cccc(-c4ccn[nH]4)c3)no2)cc1	999
O=C(CSc1cc(N2CCN(c3ccccc3F)CC2)ncn1)N1CCc2ccccc21	1010
O=C(NC1CCN(C(=O)c2cc(-c3cccs3)[nH]n2)CC1)C1CCCCC1	722
O=C(Cc1ccc(F)cc1)NCC(=O)N1CCOC(c2ccccc2)C1 (stereo not given)	646

Second part, the compound after the results:

RP-LC retention time [s]	SMILES
560	CCN1CCN(CCCNC(=O)Cn2c3ccccc3c3cnn(C)c(=O)c32)CC1
789	Cn1nc(-c2nc(-c3cccc(F)c3)no2)c2c1CCN(C(=O)C1CCCO1)C2 (stereo not given)
855	CC1=C(c2ccc(C)cc2)S(=O)(=O)N=C1N1CCCN(C(=O)CC(C)C)CC1
590	CCCn1cnc2cc(CNC(=O)C3CCCC3)ccc21
850	CC1=C(c2cccc(Cl)c2)S(=O)(=O)N=C1N1CCCN(C(=O)C2CCC2)CC1
753	CCc1nc2c(c(=O)n1CC(=O)Nc1ccc(C(C)C)cc1)CN(Cc1ccccc1)CC2
631	CCC1CCCCN1CCCNC(=O)c1cn(CCOC)c(=O)c2c1c1ccccc1n2C (stereo not given)
891	Cc1c(Cl)cccc1NC(=O)N1CCc2c(c(COc3ccccc3)nn2C)C1
639	Cc1cc(C)cc(NC(=O)N(C)Cc2nc3cc(C(=O)N(C)C)ccc3n2C)c1
616	COCCN1C(=O)[C@H]2CN(Cc3ccc(C)cc3)C[C@H]2C1=O
1050	CCCNC(=O)C1CCCN(S(=O)(=O)c2cc(-c3noc(C4CCCC4)n3)cs2)C1 (stereo not given)
665	COc1cc(C2C(C(=O)N3CCCC3)CCC(=O)N2c2ccc3c(c2)OCO3)cc(OC)c1OC (stereo not given)
838	COCCNC(=O)c1nnc(-c2ccc(S(=O)(=O)N3CCC(C)CC3)cc2)o1
952	CCOc1ccc2c(n1)CCN(C(=O)C1(c3ccccc3)CC1)C2
581	CCN1CCN(C(=O)CN2C(=O)c3ccccc3Sc3ncccc32)CC1
892	CCc1nnc(-c2ccc3ccn(CC(=O)N4CCN(c5ccccc5F)CC4)c3c2)o1
904	Cc1ccc(NC(=O)N2CCC3(CC2)NC(=O)c2cc(Cl)ccc2N3C)cc1C
903	CCOc1ccccc1NC(=O)C1CCc2nc(N3CCCCC3)ncc2C1 (stereo not given)
553	CN(C)c1cc(N2CCCC(NC(=O)c3cccnc3)C2)ncn1 (stereo not given)
576	CC(=O)Nc1ccc2c(c1)nc(CN1CCN(C(=O)c3ccco3)CC1)n2C
809	CCOc1ccc(CC(=O)N2CCN(c3cc(-c4cccs4)[nH]n3)CC2)cc1
958	Cc1ccc(-c2cc(C(=O)NC3CCCCC3)c(C)[nH]2)cc1
906	CCc1ccc(NS(=O)(=O)c2cc3c4c(c2)CCC(=O)N4CCC3)cc1
865	CN(C1CCc2nn(C)c(=O)n2CC1)S(=O)(=O)c1ccccc1Cl (stereo not given)
833	Cc1cc2c(=O)n(CC(=O)Nc3ccc(Cl)cc3C)ccc2s1
756	CCn1c(=O)c2c(cc(C)n2C)n(CC(=O)Nc2c(C)cccc2C)c1=O

RP-LC retention time [s]	SMILES
780	CCOC(=O)c1c(C)[nH]c(C(=O)N2CCC(CC(=O)NC(C)c3ccccc3)CC2)c1C (stereo not given)
673	CCC(=O)Nc1ccc(C2(C(=O)O)CCC2)cc1
780	O=C(CN1CCN(Cc2ccc(F)cc2)C(=O)C1=O)NCc1ccc2c(c1)OCO2
660	Cn1ccc2c(cc(C(=O)NCc3ccc4c(c3)OCO4)n2C)c1=O
708	Cc1ccc(C)c(NC(=O)Cn2nc3n(c2=O)CCCC3)c1
972	CCS(=O)(=O)Nc1ccc(C2(C(=O)NCc3ccc(F)cc3F)CCCCC2)cc1
891	CC1Oc2ccc(S(=O)(=O)N3CCC(C(=O)Nc4cccc(Cl)c4)CC3)cc2NC1=O (stereo not given)
770	CCOC(=O)Cn1c(C2CC(=O)N(c3ccccc3)C2)nc2ccccc21 (stereo not given)
598	CCC1CCCCN1C(=O)c1cnc2nc(C)ccc2c1Nc1ccc(CC(=O)O)cc1 (stereo not given)
871	Cc1cc2c(=O)n(CC(=O)Nc3ccc(Cl)cc3F)ccc2s1
888	COc1ccc(Cn2cc(S(=O)(=O)N3CCCCC3)ccc2=O)cc1
612	COc1cc(=O)c(C(N)=O)nn1-c1ccc(C)cc1
663	CCOC(=O)N1CCN(C(=O)c2nn(-c3ccccc3C)c(=O)cc2OC)CC1
1280	CCOc1cccc(-c2noc(Cn3ncn4nc(-c5cc(C)ccc5C)cc4c3=O)n2)c1
816	CCc1ccc(CN2C(=O)c3c(C(=O)OC)ncn3CC2(C)C(=O)NC2CCCC2)cc1 (stereo not given)
787	CCC(C)NC(=O)N1CCCN(C2=NS(=O)(=O)C(c3ccc(F)cc3)=C2C)CC1 (stereo not given)
1020	Cc1ccccc1-c1nnc(SCC(=O)N2CCC(C)CC2)o1
650	CN1CCn2ccnc2C12CCN(C(=O)Nc1ccc(Cl)cc1C(F)(F)F)CC2
893	COc1ccc(CCNC(=O)C2CCN(S(C)(=O)=O)c3cc(C)ccc3O2)cc1 (stereo not given)
1030	Cc1ccc(C)c(NC(=O)c2cc(C)n3nccc3n2)c1
584	CC(C)COc1cc(=O)n2c(c1C(=O)NCCCN1CCCCC1)CCCCC2
600	Cc1ccc2nc(NC(=O)CN3CCc4nc(NC(=O)C5CC5)sc4C3)sc2c1
1130	O=C(NCc1ccc(N2CCCC2)cc1)c1sc2ncccc2c1-n1cccc1
762	COc1cc(C)c(Sc2cnc(NC(=O)c3ccc(CNC(C)C(C)(C)C)cc3)s2)cc1C(=O)N1CCN(C(C)=O)CC1 (stereo not given)
863	COCCNC(=O)c1csc(N2CCN(c3ccccc3)CC2)n1
